Laboratory results published in article PMC10910545, “The crystal structure of mycothiol disulfide reductase (Mtr) provides mechanistic insight into the specific low-molecular-weight thiol reductase activity of Actinobacteria” (Acta Crystallographica. Section D, Structural Biology, 2024).

Experiments:
[1] = molecular target: T1, Mtr Re (mycothiol disulfide reductase) (Rhodococcus erythropolis, UniProt C0ZY75); test: X-ray crystal structure, […] A; type: binding; settings: copurified cofactor, one FAD per monomer; redox-active Cys39-Cys44 on si face
T1 construct: full-length, 458 residues, pET-22b(+) NdeI/XhoI, E. coli BL21(DE3); homodimer about 100 kDa

[2] = molecular target: T2, Mtr Ms (mycothiol disulfide reductase) (Mycolicibacterium smegmatis, UniProt A0QVL0); test: UV-Vis A465/A280 ratio and yellow crystals; type: binding; settings: copurified cofactor; FAD not modelled in the 4.7 A structure
T2 construct: gene MSMEG_2611; full-length, 461 residues, pET-22b(+) NdeI/XhoI, E. coli BL21(DE3); homodimer about 100 kDa
T2 sequence (A0QVL0 1-461): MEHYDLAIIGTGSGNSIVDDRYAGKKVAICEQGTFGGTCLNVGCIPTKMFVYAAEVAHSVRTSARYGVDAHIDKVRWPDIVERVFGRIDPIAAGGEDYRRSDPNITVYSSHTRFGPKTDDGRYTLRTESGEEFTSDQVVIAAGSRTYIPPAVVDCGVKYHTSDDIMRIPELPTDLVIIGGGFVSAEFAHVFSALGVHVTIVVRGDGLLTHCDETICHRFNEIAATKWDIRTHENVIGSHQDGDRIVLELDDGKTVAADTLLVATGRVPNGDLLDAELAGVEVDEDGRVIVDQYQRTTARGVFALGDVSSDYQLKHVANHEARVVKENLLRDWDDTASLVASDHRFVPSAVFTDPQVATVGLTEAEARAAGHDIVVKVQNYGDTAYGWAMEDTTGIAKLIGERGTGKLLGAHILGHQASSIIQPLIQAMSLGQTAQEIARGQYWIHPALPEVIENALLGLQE

T1 sequence (C0ZY75 entry or part of it): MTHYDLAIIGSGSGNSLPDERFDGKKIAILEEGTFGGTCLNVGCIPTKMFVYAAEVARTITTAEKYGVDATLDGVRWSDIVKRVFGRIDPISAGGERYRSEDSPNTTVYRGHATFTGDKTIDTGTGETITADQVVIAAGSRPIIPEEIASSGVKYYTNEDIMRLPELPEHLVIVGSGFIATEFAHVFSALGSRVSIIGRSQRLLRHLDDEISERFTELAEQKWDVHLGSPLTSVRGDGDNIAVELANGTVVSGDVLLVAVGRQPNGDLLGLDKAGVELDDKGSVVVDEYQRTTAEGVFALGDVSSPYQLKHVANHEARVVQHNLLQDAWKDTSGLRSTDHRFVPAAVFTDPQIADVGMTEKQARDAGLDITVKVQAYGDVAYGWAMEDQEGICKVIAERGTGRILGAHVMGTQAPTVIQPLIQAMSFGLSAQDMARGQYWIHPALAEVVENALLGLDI

## Cc1cc2nc3c(=O)[nH]c(=O)nc-3n(C[C@H](O)[C@H](O)[C@H](O)COP(=O)(O)OP(=O)(O)OC[C@H]3O[C@@H](n4cnc5c(N)ncnc54)[C@H](O)[C@@H]3O)c2cc1C [FAD]
[1]
  X-ray crystal structure, 2.9 A: In Mtr Re , both monomers show strong density for the FAD cofactor
[2]
  UV-Vis A465/A280 ratio and yellow crystals: support the presence of FAD in both proteins
